Experimental data reported in US20220202912A1, “Polypeptides in Preparation of Drugs for Treatment or Prevention of Rheumatoid Arthritis” (priority 2011, published 2022).
Where no end group is shown, it is not given here.

Tests used:
CIA mouse models = assay: collagen-induced arthritis (CIA) mouse models; assay type: in vivo, DBA/1 mice; settings: for clinical scoring / swelling of joints / swelling of paws: 5 times
IL-1β = IL-1β production by mouse peritoneal macrophages (LPS, ELISA); assay type: cell-based, C57BL/6 mice; settings: LPS 5 μg/mL, 48 h
Procedure: In the test, mice are divided into […], namely a blank control group, a lipopolysaccharide (LPS) model group, a dexamethasone group, and mPEG-SC20k-HM-3 groups at different doses (0.56, 1.12, 2.25, 4.50, 9.00 μmol/L).
(1) IL-1 production: mice are intraperitoneally injected with 1 mL of broth medium (containing 6% of starch). After three days, mouse peritoneal macrophages are taken aseptically and washed twice with RPMI 1640 medium, and the cell concentration is adjusted to 2×10^6 cells/mL. The cells are injected into a 24-well culture plate, 1 mL per well, and the cells are incubated in a cell incubator for 3 h, and vibrated once every 30 min to make the cells fully adhere. Then the cells are washed twice with culture solution to remove non-adherent cells, are cultured continuously for 48 h after administration, and are centrifuged at 1000 r for 15 min. The supernatant is collected as a sample with IL-1β to be tested. (2) Determination of IL-1 content: various solutions are prepared; tested samples and standard substances with different concentrations (100 μL/well) are added into the corresponding wells, reaction wells are sealed with plate-sealing adhesive tape, and incubation is performed at 37° C. for 90 min; the plate is washed four times; biotinylated antibody working solution (100 μL/well) is added, the reaction wells are sealed with plate-sealing adhesive tape, and incubation is performed at 37° C. for 60 min; the plate is washed four times; enzyme conjugate working solution (100 μL/well) is added, the reaction wells are sealed with plate-sealing adhesive tape, and incubation is performed at 37° C. for 30 min; the plate is washed four times; chromogenic reagent (100 μL/well) is added, and incubation is performed at 37° C. for 10-20 min in the absence of light; stop solution (100 μL/well) is added, and the OD 450 nm absorbance is measured immediately after uniform mixing (within 5 min).

[1] = high dose 40 mg/kg once the other day
[2] = low dose 10 mg/kg once the other day
[3] = medium dose 20 mg/kg once the other day

mPEG-SC20k-Ile-Val-Arg-Arg-Ala-Asp-Arg-Ala-Ala-Val-Pro-Gly-Gly-Gly-Gly-Arg-Gly-Asp ({mPEG‑SC 20k}-IVRRADRAAVPGGGGRGD) [polypeptide III, No. 3]
clinical scoring (CIA mouse models; [1]): 2.00 ± 2.37
swelling of joints (CIA mouse models; [1]): 0.07 mm
swelling of paws (CIA mouse models; [1]): 0.14 ± 0.42 mm
clinical scoring (CIA mouse models; [2]): 4.83 ± 2.99
swelling of joints (CIA mouse models; [2]): 0.23 mm
swelling of paws (CIA mouse models; [2]): 0.37 ± 0.35 mm
clinical scoring (CIA mouse models; [3]): 6.33 ± 4.23
swelling of joints (CIA mouse models; [3]): 0.12 mm
swelling of paws (CIA mouse models; [3]): 0.34 ± 0.42 mm
therapeutic effect on collagen-induced arthritis in mice (conclusion) (CIA mouse models; mouse, in vivo): CONCLUSION: polypeptide III has therapeutic effect on collagen-induced arthritis in mice
IL-1β content (IL-1β; 0.56 μmoL/L): 89.77 ± 7.22 pg/mL
Inhibition rate (IL-1β; 0.56 μmoL/L): 90.93%
IL-1β content (IL-1β; 1.12 μmoL/L): 35.17 ± 17.71 pg/mL
Inhibition rate (IL-1β; 1.12 μmoL/L): 96.45%
IL-1β content (IL-1β; 2.25 μmoL/L): 43.78 ± 10.16 pg/mL
Inhibition rate (IL-1β; 2.25 μmoL/L): 95.58%
IL-1β content (IL-1β; 4.50 μmoL/L): 32.04 ± 6.52 pg/mL
Inhibition rate (IL-1β; 4.50 μmoL/L): 96.76%
IL-1β content (IL-1β; 9.00 μmoL/L): 104.83 ± 2.44 pg/mL
Inhibition rate (IL-1β; 9.00 μmoL/L): 89.41%
